Reference: patent US7875289B2, “Compositions of less immunogenic and long-circulating protein-lipid complexes” (The Research Foundation of State University of New York, priority 2006, dated 2011)
pKd: −log10 of the molar value.

Molecular target: T1, BDDrFVIII (Homo sapiens, UniProt P00451)
T1 construct: Deletion of the B domain leads to a less heterogenic, genetically engineered rFVIII that corresponds to the shortest form of pdFVIII (e.g. ˜170 KDa)
T1 sequence (P00451 with tags, fused parts or gaps DEL765-1658): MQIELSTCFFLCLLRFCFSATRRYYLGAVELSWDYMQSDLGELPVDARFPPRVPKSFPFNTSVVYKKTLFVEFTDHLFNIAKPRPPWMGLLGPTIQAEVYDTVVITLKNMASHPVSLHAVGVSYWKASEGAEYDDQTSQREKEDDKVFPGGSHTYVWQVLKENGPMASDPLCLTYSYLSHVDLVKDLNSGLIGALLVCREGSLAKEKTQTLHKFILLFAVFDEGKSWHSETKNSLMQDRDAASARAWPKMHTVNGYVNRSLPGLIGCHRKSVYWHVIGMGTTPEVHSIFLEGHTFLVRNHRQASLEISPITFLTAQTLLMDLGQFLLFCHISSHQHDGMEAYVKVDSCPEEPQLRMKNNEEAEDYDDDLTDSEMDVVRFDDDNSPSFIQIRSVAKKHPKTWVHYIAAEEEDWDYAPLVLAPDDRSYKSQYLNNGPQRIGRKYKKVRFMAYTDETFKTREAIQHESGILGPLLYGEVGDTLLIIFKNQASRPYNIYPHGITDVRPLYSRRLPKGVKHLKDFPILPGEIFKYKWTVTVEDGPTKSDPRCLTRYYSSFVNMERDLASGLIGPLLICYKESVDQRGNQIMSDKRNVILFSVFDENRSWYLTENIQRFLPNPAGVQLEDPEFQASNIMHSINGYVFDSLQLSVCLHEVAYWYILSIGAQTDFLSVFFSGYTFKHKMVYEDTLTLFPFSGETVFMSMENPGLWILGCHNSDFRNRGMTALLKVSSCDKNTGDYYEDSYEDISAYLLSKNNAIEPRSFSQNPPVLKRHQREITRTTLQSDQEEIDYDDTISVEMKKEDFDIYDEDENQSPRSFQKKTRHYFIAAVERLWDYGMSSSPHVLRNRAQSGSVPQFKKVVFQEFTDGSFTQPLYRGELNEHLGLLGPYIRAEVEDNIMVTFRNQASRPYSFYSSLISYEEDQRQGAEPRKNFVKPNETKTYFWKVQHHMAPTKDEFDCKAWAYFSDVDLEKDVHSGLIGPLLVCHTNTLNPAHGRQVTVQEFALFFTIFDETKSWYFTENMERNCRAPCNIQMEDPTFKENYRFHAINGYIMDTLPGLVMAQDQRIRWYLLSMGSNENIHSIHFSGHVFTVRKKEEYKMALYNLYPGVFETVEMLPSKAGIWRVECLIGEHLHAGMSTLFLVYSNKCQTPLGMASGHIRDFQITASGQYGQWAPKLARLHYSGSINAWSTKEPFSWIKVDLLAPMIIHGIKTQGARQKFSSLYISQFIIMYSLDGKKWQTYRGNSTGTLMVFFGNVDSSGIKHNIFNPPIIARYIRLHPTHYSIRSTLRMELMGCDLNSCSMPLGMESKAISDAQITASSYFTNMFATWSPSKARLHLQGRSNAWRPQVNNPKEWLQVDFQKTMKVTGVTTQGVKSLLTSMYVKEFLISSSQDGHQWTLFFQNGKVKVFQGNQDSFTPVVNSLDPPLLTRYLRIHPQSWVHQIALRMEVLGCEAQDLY
Test: Dissociation constant of lipid head group - BDDrFVIII interaction by intrinsic fluorescence
Format: binding
Conditions: excitation 285 nm, emission 330 nm, protein 3 ug/mL
Description: This examples describes the preparation of PS containing liposomes that were used for comparison with the PI containing lipidic structures in other Examples. BDDrFVIII was mixed with solution containing different concentration of O-phospho-L-serine (OPLS) or phosphocholine in such a way that the final protein concentration is maintained constant at 3 ug/mL. The OPLS or phosphocholine concentration vared between 0 and 100 uM. Each mixture is incubated for 5 minutes before subjecting to further analysis.
The intrinsic fluorescent of BDDrFVIII in the presence of increasing concentration of phospholipids head group was measured with a Quanta Master PTI instrument. The excitation was set to 285 nm and the emission was recorded at peak maximum (e.g. 330 nm). The normalized fluorescence (F/F0) data was plotted vs. [lipid] and used for the determination of the dissociation constant for lipid head group—BDDrFVIII interaction.

N[C@@H](COP(=O)(O)O)C(=O)O [OPLS, O-phospho-L-serine]
pKd: 4.15

C[N+](C)(C)CCOP(=O)([O-])O [phophocholine, phosphocholine]
pKd: 4.62
